Test results as given in ChEMBL document CHEMBL6120992, “Breviane Spiroditerpenoids with Anti-inflammatory and Antiviral Activities from Deep-Sea-Derived Fungus Penicillium sp. F59” (J Nat Prod, 2025).

tested on: RAW264.7; assay: Antiinflammatory activity in LPS-induced mouse RAW264.7 cells assessed as inhibition of nitric oxide secretion at 20 microM incubated for 24 hrs by Griess reagent based assay relative to control; assay type: functional; settings: not given

SMILES	inhibition at 20 µM
CC1=CC(=O)C=C[C@]2(C)[C@H]3C(O)C=C(C)[C@@]4(Cc5c(c(C)c(C)oc5=O)O4)[C@]3(C)CC[C@@H]12 (stereo partly drawn)	94%
CC1=CC(=O)C=C[C@]2(C)[C@H]3C(=O)C=C(C)[C@]4(Oc5c(C)c(C)oc(=O)c5[C@@H]4O)[C@]3(C)CC[C@@H]12	47%
CC1=CC(=O)C=C[C@]2(C)[C@H]3CC=C(C)[C@@]45Oc6c(C)c(C)oc(=O)c6[C@@H]4O[C@@H](O)[C@@]35CC[C@@H]12	69%
CC(=O)/C(C)=C1/C[C@H]2O[C@@H](O)[C@]34CC[C@H]5C(C)=CC(=O)C[C@@H]6O[C@H](C=C(C)[C@@]23O1)[C@@H]4[C@@]65C	31%
CC1=CC(=O)C[C@@H]2O[C@@H]3C=C(C)[C@@]45Oc6c(C)c(C)oc(=O)c6[C@@H]4O[C@@H](O)[C@]54CC[C@@H]1[C@@]2(C)[C@@H]34	35%
CC(=O)/C(C)=C1\C[C@H]2O[C@@H](O)[C@]34CC[C@H]5C(C)=CC(=O)C[C@@H]6O[C@H](C=C(C)[C@@]23O1)[C@@H]4[C@@]65C	38%
CC1=CC(=O)C[C@@H]2O[C@@H]3C=C(C)[C@@]45Oc6c(C)c(C)oc(=O)c6[C@@H]4OC[C@]54CC[C@@H]1[C@@]2(C)[C@@H]34	45%
CC1=CC(=O)C=C[C@]2(C)[C@H]3[C@@H](O)C=C(C)[C@@]4(Cc5c(c(C)c(C)oc5=O)O4)[C@]3(C)CC[C@@H]12 [BREVIONE F]	79%
CC1=CC(=O)C=C[C@]2(C)[C@H]3[C@@H](O)[C@@H]4O[C@]4(C)[C@@]4(Cc5c(c(C)c(C)oc5=O)O4)[C@]3(C)CC[C@@H]12	63%
CO[C@H]1c2c(c(C)c(C)oc2=O)O[C@]12C(C)=C[C@H]1O[C@H]3CC(=O)C=C(C)[C@@H]4CC[C@]2(C)[C@H]1[C@@]34C	57%

tested on: RAW264.7; assay: Antiinflammatory activity in LPS-induced mouse RAW264.7 cells assessed as inhibition of nitric oxide secretion incubated for 24 hrs by Griess reagent based assay; assay type: functional, cell-based; settings: RAW264.7, 24 h

SMILES	IC50
CC1=CC(=O)C=C[C@]2(C)[C@H]3C(O)C=C(C)[C@@]4(Cc5c(c(C)c(C)oc5=O)O4)[C@]3(C)CC[C@@H]12 (stereo partly drawn)	9.2 µM
CC1=CC(=O)C=C[C@]2(C)[C@H]3[C@@H](O)C=C(C)[C@@]4(Cc5c(c(C)c(C)oc5=O)O4)[C@]3(C)CC[C@@H]12 [BREVIONE F]	12.9 µM

tested on: RAW264.7; assay: Cytotoxicity against mouse RAW264.7 cells assessed as cell viability at 20 microM incubated for 24 hrs by CCK-8 method relative to control; assay type: functional; settings: read-out: Activity

SMILES	viability at 20 µM
CC1=CC(=O)C=C[C@]2(C)[C@H]3C(O)C=C(C)[C@@]4(Cc5c(c(C)c(C)oc5=O)O4)[C@]3(C)CC[C@@H]12 (stereo partly drawn)	98%
CC1=CC(=O)C=C[C@]2(C)[C@H]3C(=O)C=C(C)[C@]4(Oc5c(C)c(C)oc(=O)c5[C@@H]4O)[C@]3(C)CC[C@@H]12	91%
CC1=CC(=O)C=C[C@]2(C)[C@H]3CC=C(C)[C@@]45Oc6c(C)c(C)oc(=O)c6[C@@H]4O[C@@H](O)[C@@]35CC[C@@H]12	91%
CC(=O)/C(C)=C1/C[C@H]2O[C@@H](O)[C@]34CC[C@H]5C(C)=CC(=O)C[C@@H]6O[C@H](C=C(C)[C@@]23O1)[C@@H]4[C@@]65C	96%
CC1=CC(=O)C[C@@H]2O[C@@H]3C=C(C)[C@@]45Oc6c(C)c(C)oc(=O)c6[C@@H]4O[C@@H](O)[C@]54CC[C@@H]1[C@@]2(C)[C@@H]34	100%
CC(=O)/C(C)=C1\C[C@H]2O[C@@H](O)[C@]34CC[C@H]5C(C)=CC(=O)C[C@@H]6O[C@H](C=C(C)[C@@]23O1)[C@@H]4[C@@]65C	100%
CC1=CC(=O)C[C@@H]2O[C@@H]3C=C(C)[C@@]45Oc6c(C)c(C)oc(=O)c6[C@@H]4OC[C@]54CC[C@@H]1[C@@]2(C)[C@@H]34	93%
CC1=CC(=O)C=C[C@]2(C)[C@H]3[C@@H](O)C=C(C)[C@@]4(Cc5c(c(C)c(C)oc5=O)O4)[C@]3(C)CC[C@@H]12 [BREVIONE F]	100%
CC1=CC(=O)C=C[C@]2(C)[C@H]3[C@@H](O)[C@@H]4O[C@]4(C)[C@@]4(Cc5c(c(C)c(C)oc5=O)O4)[C@]3(C)CC[C@@H]12	100%
CO[C@H]1c2c(c(C)c(C)oc2=O)O[C@]12C(C)=C[C@H]1O[C@H]3CC(=O)C=C(C)[C@@H]4CC[C@]2(C)[C@H]1[C@@]34C	85%

tested on: SARS-CoV-2; assay: Antiviral activity against SARS-CoV-2 Omicron BA.2 pseudovirus infected in human 293T/ACE2 cells assessed as virus inhibition incubated for 24 hrs by firefly luciferase assay; assay type: functional, organism-based; settings: Severe acute respiratory syndrome coronavirus 2, Omicron BA.2, 293T/ACE2, 24 h

SMILES	IC50
CC1=CC(=O)C=C[C@]2(C)[C@H]3[C@@H](O)[C@@H]4O[C@]4(C)[C@@]4(Cc5c(c(C)c(C)oc5=O)O4)[C@]3(C)CC[C@@H]12	10.3 µM

tested on: SARS-CoV-2; assay: Antiviral activity against SARS-CoV-2 Omicron BA.2 pseudovirus infected in human 293T/ACE2 cells assessed as virus inhibition at 50 microM incubated for 24 hrs by firefly luciferase assay relative to control; assay type: functional; settings: Severe acute respiratory syndrome coronavirus 2, Omicron BA.2, 293T/ACE2

SMILES	inhibition at 50 µM
CC1=CC(=O)C=C[C@]2(C)[C@H]3C(O)C=C(C)[C@@]4(Cc5c(c(C)c(C)oc5=O)O4)[C@]3(C)CC[C@@H]12 (stereo partly drawn)	0%
CC1=CC(=O)C=C[C@]2(C)[C@H]3C(=O)C=C(C)[C@]4(Oc5c(C)c(C)oc(=O)c5[C@@H]4O)[C@]3(C)CC[C@@H]12	46%
CC1=CC(=O)C=C[C@]2(C)[C@H]3CC=C(C)[C@@]45Oc6c(C)c(C)oc(=O)c6[C@@H]4O[C@@H](O)[C@@]35CC[C@@H]12	28%
CC(=O)/C(C)=C1/C[C@H]2O[C@@H](O)[C@]34CC[C@H]5C(C)=CC(=O)C[C@@H]6O[C@H](C=C(C)[C@@]23O1)[C@@H]4[C@@]65C	15%
CC1=CC(=O)C[C@@H]2O[C@@H]3C=C(C)[C@@]45Oc6c(C)c(C)oc(=O)c6[C@@H]4O[C@@H](O)[C@]54CC[C@@H]1[C@@]2(C)[C@@H]34	0%
CC(=O)/C(C)=C1\C[C@H]2O[C@@H](O)[C@]34CC[C@H]5C(C)=CC(=O)C[C@@H]6O[C@H](C=C(C)[C@@]23O1)[C@@H]4[C@@]65C	0%
CC1=CC(=O)C[C@@H]2O[C@@H]3C=C(C)[C@@]45Oc6c(C)c(C)oc(=O)c6[C@@H]4OC[C@]54CC[C@@H]1[C@@]2(C)[C@@H]34	16%
CC1=CC(=O)C=C[C@]2(C)[C@H]3[C@@H](O)C=C(C)[C@@]4(Cc5c(c(C)c(C)oc5=O)O4)[C@]3(C)CC[C@@H]12 [BREVIONE F]	5%
CC1=CC(=O)C=C[C@]2(C)[C@H]3[C@@H](O)[C@@H]4O[C@]4(C)[C@@]4(Cc5c(c(C)c(C)oc5=O)O4)[C@]3(C)CC[C@@H]12	69%
CO[C@H]1c2c(c(C)c(C)oc2=O)O[C@]12C(C)=C[C@H]1O[C@H]3CC(=O)C=C(C)[C@@H]4CC[C@]2(C)[C@H]1[C@@]34C	0%

tested on: not listed separately; assay: Cytotoxicity against human 293T/ACE2 cells assessed as cell viability at 100 microM incubated for 24 hrs by CellTiter assay relative to control; assay type: functional; settings: read-out: Activity

SMILES	viability at 100 µM
CC1=CC(=O)C=C[C@]2(C)[C@H]3C(O)C=C(C)[C@@]4(Cc5c(c(C)c(C)oc5=O)O4)[C@]3(C)CC[C@@H]12 (stereo partly drawn)	93%
CC1=CC(=O)C=C[C@]2(C)[C@H]3C(=O)C=C(C)[C@]4(Oc5c(C)c(C)oc(=O)c5[C@@H]4O)[C@]3(C)CC[C@@H]12	98%
CC1=CC(=O)C=C[C@]2(C)[C@H]3CC=C(C)[C@@]45Oc6c(C)c(C)oc(=O)c6[C@@H]4O[C@@H](O)[C@@]35CC[C@@H]12	93%
CC(=O)/C(C)=C1/C[C@H]2O[C@@H](O)[C@]34CC[C@H]5C(C)=CC(=O)C[C@@H]6O[C@H](C=C(C)[C@@]23O1)[C@@H]4[C@@]65C	92%
CC1=CC(=O)C[C@@H]2O[C@@H]3C=C(C)[C@@]45Oc6c(C)c(C)oc(=O)c6[C@@H]4O[C@@H](O)[C@]54CC[C@@H]1[C@@]2(C)[C@@H]34	99%
CC(=O)/C(C)=C1\C[C@H]2O[C@@H](O)[C@]34CC[C@H]5C(C)=CC(=O)C[C@@H]6O[C@H](C=C(C)[C@@]23O1)[C@@H]4[C@@]65C	90%
CC1=CC(=O)C[C@@H]2O[C@@H]3C=C(C)[C@@]45Oc6c(C)c(C)oc(=O)c6[C@@H]4OC[C@]54CC[C@@H]1[C@@]2(C)[C@@H]34	90%
CC1=CC(=O)C=C[C@]2(C)[C@H]3[C@@H](O)C=C(C)[C@@]4(Cc5c(c(C)c(C)oc5=O)O4)[C@]3(C)CC[C@@H]12 [BREVIONE F]	97%
CC1=CC(=O)C=C[C@]2(C)[C@H]3[C@@H](O)[C@@H]4O[C@]4(C)[C@@]4(Cc5c(c(C)c(C)oc5=O)O4)[C@]3(C)CC[C@@H]12	99%
CO[C@H]1c2c(c(C)c(C)oc2=O)O[C@]12C(C)=C[C@H]1O[C@H]3CC(=O)C=C(C)[C@@H]4CC[C@]2(C)[C@H]1[C@@]34C	92%
